For one data set, the system named is AmCYP04 (Seq ID 27). Briefly: Herbicide degradation in transgenic yeast cells expressing cytochrome P450 AmCYP04. In kind it is in vitro ADME, Alopecurus myosuroides. Particulars: transgenic yeast cells (S. cerevisiae BJ5459) expressing AmCYP04, Seq ID 27, recovery of herbicide in reference to control, UPLC-MS/MS. An excerpt: (§1) The cDNA of CYP450 monooxygenase genes were synthesized with an optimized codon usage for yeast, cloned via uniqueBamHI-SalI restriction sites in the low copy pESC-ura expression vector (Agilent Technologies). Constructs were transformed into S. cerevisiae wild type strain BJ5459 (MATa ura3-5 trp lys2-801 leu2Δ1 his3Δ200 pep4Δ::HIS3 prb1Δ1.6R can1 GAL cir^+; ATCC 208284) using a Yeast Maker Transformation System from Clontech and verified by colony PCR. Positive clones were selected on minimal synthetic-defined media (SD) supplemented with appropriate dropout solution. The strain had no obvious phenotypes. Cells were induced in SG-Ura medium (same composition as SD but with galactose instead of glucose) for 24 h (Pompon et al., Methods in Enzymology 272:51-64 (1996); Urban et al., Eur. J. Biochem. 222:[…] (1994)). Optimal heterologous protein expression was assayed using Western Blot analysis.
(§2) 96 deep well growth plates (STARLAB GmbH) charged with 700 μL SDA medium are inoculated with the respective yeast strains from cryostock and incubated at 30° C., 400 rpm. After 48 h, an aliquot is transferred into a new plate with fresh SDA medium 400 rpm. After 4 h the cultures are spun down, the supernatant discarded and the pellets resuspended in 700 μL pre-warmed SGA media to induce protein expression at 30° C. and 400 rpm. After an incubation time of 24 h, 7 μL herbicide solution (500 μM DMSO stock solution) or solvent control is added to the yeast culture incubated for additional 24 h. The herbicide conversion is stopped by adding 700 μL acetonitrile followed by ultrasonification. The homogenate is prepared for UPLC-MS/MS analysis. The degradation rate was calculated by the determination of the recovery of the herbicide in reference to the control.

In the next data set the test system is AmCYP03_1 (Seq ID 4). Put plainly: Herbicide degradation in transgenic yeast cells expressing cytochrome P450 AmCYP03_1. In kind it is in vitro ADME, Alopecurus myosuroides. Particulars: transgenic yeast cells (S. cerevisiae BJ5459) expressing AmCYP03_1, Seq ID 4, recovery of herbicide in reference to control, UPLC-MS/MS.
Text: as §1, §2

A further data set has as its system AmCYP12_1 (Seq ID 45). Briefly: Herbicide degradation in transgenic yeast cells expressing cytochrome P450 AmCYP12_1. In kind it is in vitro ADME, Alopecurus myosuroides. Particulars: transgenic yeast cells (S. cerevisiae BJ5459) expressing AmCYP12_1, Seq ID 45, recovery of herbicide in reference to control, UPLC-MS/MS.
Text: as §1, §2

Data set [1] concerns transgenic plants expressing Am_CYP04 (SEQ ID 27). Briefly: Greenhouse herbicide tolerance of transgenic plants expressing Am_CYP04 (FIG. 2). In kind it is in vivo, Arabidopsis thaliana. Particulars: plants expressing Am_CYP04 (SEQ ID 27) vs wildtype, different application rates (g/ha). On the procedure: (§3) Transgenic Arabidopsis thaliana plants were assayed for improved tolerance to saflufenacil, 1,5-dimethyl-6-thioxo-3-(2,2,7-trifluoro-3-oxo-4-(prop-2-ynyl)-3,4-dihydro-2H-benzo[b][1,4]oxazin-6-yl)-1,3,5-triazinane-2,4-dione (CAS 1258836-72-4), chlorotoluron, pendimethalin, flumioxazin, butafenacil, acifluorfen, lactofen, bifenox, diuron, sulfentrazon, tepraloxydim, coumarone-derivative herbicides, azine-derivative herbicides in 48-well plates. Therefore, T2 seeds are surface sterilized by stirring for 5 min in ethanol+water (70+30 by volume), rinsing one time with ethanol+water (70+30 by volume) and two times with sterile, deionized water. The seeds are resuspended in 0.1% agar dissolved in water (w/v) Four to five seeds per well are plated on solid nutrient medium consisting of half-strength murashige skoog nutrient solution, pH 5.8 (Murashige and Skoog (1962) Physiologia Plantarum 15: 473-497). Compounds are dissolved in dimethylsulfoxid (DMSO) and added to the medium prior solidification (final DMSO concentration 0.1%). Multi well plates are incubated in a growth chamber at 22° C., 75% relative humidity and 110 μmol Phot*m^2*s^−1 with 14:10 h light: dark photoperiod. Growth inhibition is evaluated seven to ten days after seeding in comparison to wild type plants. Additionally, transgenic T1 Arabidopsis plants were tested for improved tolerance to herbicides in greenhouse studies with the following herbicides: saflufenacil, 1,5-dimethyl-6-thioxo-3-(2,2,7-trifluoro-3-oxo-4-(prop-2-ynyl)-3,4-dihydro-2H-benzo[b][1,4]oxazin-6-yl)-1,3,5-triazinane-2,4-dione (CAS 1258836-72-4), chlorotoluron, pendimethalin, flumioxazin, butafenacil, acifluorfen, lactofen, bifenox, diuron, sulfentrazone, tepraloxydim, coumarone-derivative herbicides, azine-derivative herbicides.

Data set [2] has as its system transgenic plants expressing Am_CYP03 (SEQ ID 4). Briefly: Greenhouse herbicide tolerance of transgenic plants expressing Am_CYP03 (FIG. 1). Format: in vivo, Arabidopsis thaliana. Particulars: plants expressing Am_CYP03 (SEQ ID 4) vs wildtype, different application rates (g/ha). On the procedure: as §3
Another data set has as its system AmCYP03b (Seq ID 6). Put plainly: Herbicide degradation in transgenic yeast cells expressing cytochrome P450 AmCYP03b. Format: in vitro ADME, Alopecurus myosuroides. Particulars: transgenic yeast cells (S. cerevisiae BJ5459) expressing AmCYP03b, recovery of herbicide in reference to control, UPLC-MS/MS.
Text: as §1, §2

The next data set deals with AmCYP01 (Seq ID 2). Briefly: Herbicide degradation in transgenic yeast cells expressing cytochrome P450 AmCYP01. In kind it is in vitro ADME, Alopecurus myosuroides. Particulars: transgenic yeast cells (S. cerevisiae BJ5459) expressing AmCYP01, Seq ID 2, recovery of herbicide in reference to control, UPLC-MS/MS.
Text: as §1, §2

`Cc1ccc(NC(=O)N(C)C)cc1Cl` [Chlorotoluron, reference compound]: the “Degradation rate of listed herbicidal compounds within 24 h” value (from here on “Degradation rate”) amounted to 26 in the data set with AmCYP04 (Seq ID 27); 32 in the data set on AmCYP03_1 (Seq ID 4); 22 in the data set on AmCYP12_1 (Seq ID 45); 29 in the data set with AmCYP03b (Seq ID 6); 18 in the data set with AmCYP01 (Seq ID 2). Also, the “Phenotype (injury) of transgenic plants compared to non-transgenic plants” value (shortened to “Phenotype … compared to non-transgenic plants”) in data set [1] and in data set [2] was “much less injured” each time.
`CC(C)N(C)S(=O)(=O)NC(=O)c1cc(-n2c(=O)cc(C(F)(F)F)n(C)c2=O)c(F)cc1Cl` [saflufenacil, reference compound]: the “Degradation rate” value with AmCYP04 (Seq ID 27) came to 18; in the data set with AmCYP03_1 (Seq ID 4), 10; in the data set with AmCYP12_1 (Seq ID 45), 20; with AmCYP03b (Seq ID 6) it was 9; in the data set on AmCYP01 (Seq ID 2), 20. Also, the “Phenotype … compared to non-transgenic plants” value in data set [1] and in data set [2] was “much less injured” throughout.
For `C#CCN1C(=O)C(F)(F)Oc2cc(F)c(-n3c(=O)n(C)c(=S)n(C)c3=O)cc21` [1,5-dimethyl-6-thioxo-3-(2,2,7-trifluoro-3-oxo-4-(prop-2-ynyl)-3,4-dihydro-2H-benzo[b][1,4]oxazin-6-yl)-1,3,5-triazinane-2,4-dione, reference compound], the “Degradation rate” value is listed as 24 with AmCYP04 (Seq ID 27); 23 in the data set on AmCYP03_1 (Seq ID 4); 20 in the data set on AmCYP12_1 (Seq ID 45); 21 with AmCYP03b (Seq ID 6); 17 in the data set on AmCYP01 (Seq ID 2). In addition, the “Phenotype … compared to non-transgenic plants” value in data set [1] and in data set [2] was “much less injured” each time.

(Values after patent US10294488B2, “Herbicide-metabolizing cytochrome P450 monooxygenases” (BASF SE, priority 2012, dated 2019).)
